The values that follow come from patent US8883437B2, “Nitroreductase enzymatic substrates” (bioMérieux S.A., priority 2010, dated 2014).

Assay [1] deals with E. cloacae NCTC 11936. As to the kind of experiment: Nitroreductase substrate in Columbia medium, growth and colony color. Type of assay: cell-based. Particulars: 40 mg substrate in 400 ml Columbia medium, 24 hours at 37° C., colonies examined visually. The protocol: (§1) 40 mg of substrate were dissolved in 4 ml of dimethylsulfoxide and added to 400 ml of previously autoclaved Columbia medium. The medium was distributed in Petri dishes 90 mm in diameter at the rate of 20 ml per dish. Ten strains of microorganisms obtained from collections and belonging to various species of bacteria and yeasts are inoculated as spots of about 10 000 colony forming units. The media are incubated for 24 hours at 37° C. and then the colonies formed are examined visually.

Assay [2] has as its system P. rettgeri NCTC 7475. The assay is described as above. Conditions: 40 mg substrate in 400 ml Columbia medium, 24 hours at 37° C., colonies examined visually. Type of assay: cell-based. The protocol: as §1

For the molecule `C[N+]1=C(C=Cc2ccc([N+](=O)[O-])cc2)C(C)(C)c2ccccc21.[I-]` [Iodinated 2-(4-nitrostyryl)-1,3,3-trimethylindolinium], the Color entry in assay [1] and in assay [2] was “Pale pink” throughout.
